Several values for one entry are separate records, joined by “and”; a condition that tells them apart may be missing. Equal entries are not always repeated. Blank lines part the entries; values can stand above or below the compound they belong to.
Legend:
[1] = Forced release of diclofenac after autoclaving and 10 days in the impregnation solution (Example 10); type: physicochemical
Protocol: Each of three hydrophilic acrylic implants of the type used in Example 9 was first introduced into the container with a 0.9% NaCl solution containing 1.5 mg/ml diclofenac solution. The container was then autoclaved at 122° C. for 30 minutes. After autoclaving, the IOLs were left in their impregnation solution for 10 days at ambient temperature. The procedure described in Example 9 was used to release the absorbed quantities of the diclofenac from the IOLs. The amounts released were respectively 83.57 μg, 101.66 μg, 84.16 μg or an average of 89.79 μg per implant.

[2] = Saturated diclofenac solution in 0.9% NaCl; type: physicochemical; conditions: sodium diclofenac dissolved in 0.9% NaCl solution
Protocol: (§1) Initially, polyHEMA soft IOLs were impregnated by immersing them in a solution saturated with diclofenac (1.8 mg/ml, prepared by dissolving sodium diclofenac in a 0.9% solution of NaCl), at room temperature for 72 hours, carefully rinsed and then released into 1 ml of a 0.9% NaCl solution. After 6 hours, 24 hours and 96 hours, the diclofenac was measured in the release solution by HPLC, after which the IOL was rinsed and, for the intermediate durations, left to release in a new solution. It is understood that the released quantities correspond to the quantities previously absorbed and fixed in the IOLs In all the preceding examples the diclofenac was used at concentrations of 1.8 mg/ml or 1.5 mg/ml that is at or only slightly below the saturation level.

[3] = Diclofenac fixed from lower-concentration solutions after prior sterilization (Example 13); type: physicochemical; conditions: pre-sterilized hydrophilic acrylic IOL; for quantity of diclofenac fixed per IOL: 4 days of immersion
Protocol: In these tests, the hydrophilic acrylic IOLs were first sterilized in their sealed containers in a 0.9% NaCl solution, in accordance with the standard sterilization procedure used for conventional IOLs. The solution contained no active ingredient of any kind. After sterilization at 121° C. for 30 minutes the containers were opened and the IOLs transferred to other containers which had previously been filled with a 0.9% NaCl solution including respectively 0.9 mg/ml, 0.45 mg/ml and 0.225 mg/ml of diclofenac. The IOLs remained immersed in the impregnation solution for 4 days in each case. Thereafter the absorbed quantities of diclofenac were driven out of the IOLs in double boilers at 97° C. as described above. […] In a second series of tests conducted with an impregnation solution of 0.9% NaCl with 0.9 mg/ml under the same conditions as in the first series, except that the residence in the impregnation solution was 49 days. The resulting average quantity of diclofenac fixed by the IOLs was 502 μg per implant.

[4] = Diclofenac absorbed versus time in the impregnation solution after sterilization (Example 12); type: physicochemical; conditions: for Average amount of diclofenac released (absorbed) per IOL: average of three IOLs; for amount of diclofenac released (absorbed) per IOL: individual tests
Protocol: This example included tests on 21 IOLs to ascertain the time it takes for the amount of diclofenac absorbed by the IOL to reach its equilibrium. Each IOL was immersed in 5 ml of 1.5 mg/ml diclofenac solution in deionized water and then sterilized as is conventional, namely at 120° C. for a period of 30 minutes. The sterilized IOLs were then allowed to cool and left in the impregnation solution at room temperature for respective periods of 10 days, 20 days, 35 days, 41 days, 50 days and 65 days. At the end of each of these periods, three IOLs were removed and the quantity of diclofenac was then measured by forced release comprising cycles in a double boiler at 97° C. followed by rest periods until the diclofenac was entirely released from the IOLs.
The amounts of diclofenac released and corresponding to the amounts absorbed for the respective periods are expressed in μg.

[5] = In vitro release of diclofenac from polyHEMA soft IOLs, impregnated for 72 hours (Example 7); type: physicochemical
Protocol: as §1, with “IOLs” for “IOLs In all the preceding examples the diclofenac was used at concentrations of 1.8 mg/ml or 1.5 mg/ml that is at or only slightly below the saturation level.”

[6] = In vitro kinetics of release of diclofenac at 35° C. over 14 days; type: physicochemical; conditions: release in 0.9% NaCl at 35° C.
Protocol: The following experiments were intended to determine more precisely the kinetics of release of diclofenac (in vitro experiments). As previously, the quantities released were measured by sampling the release medium (0.9% neutral NaCl solution) at intervals for measurement and renewing it for a new interval. The samples were taken after 6 hours and 24 hours and then every 24 hours for 14 days in total. To approximate the actual (i.e. in vivo) conditions of use more closely, release was effected at 35° C. The IOLs were impregnated by two different methods. […] A second experiment was carried out without sterilization, the IOLs remaining in the diclofenac solution for 24 hours. The quantities released were substantially the same, to within ±10%, and are set out in the table below in hours (H), days (D) and μg/ml.

[7] = test system: postoperative inflammation of the eye; assay: Anti-inflammatory effect of diclofenac-impregnated IOL after cataract operation in rabbits (Example 14); type: in vivo, rabbit; conditions: diclofenac-impregnated IOL versus same IOL without medicated product in opposite eye, three rabbits
Protocol: A test was carried out on three rabbits which were implanted with hydrophilic acrylic IOLs impregnated by autoclaving in a 1.5 mg/ml diclofenac solution at 120° C. for 30 minutes as described in Example 9 above. The object of this test was to determine the anti-inflammatory effect of diclofenac after a cataract operation. After extraction, the crystalline lens in each eye, the left eye was fitted with an impregnated IOL according to the invention and the right eye with the same kind of IOL with no medicated product therein. The eyes of the rabbit were examined by an operator on day one and microscopically by an ophtalmologist on day 7 and day 14 after the operation. The observations are set out in the following table.

[8] = In vitro release of diclofenac from polyHEMA soft IOLs, impregnated for 7 days (Example 8); type: physicochemical; conditions: for Released quantities: polyHEMA IOL impregnated 7 days in saturated diclofenac; for Cumulative or total released quantities: polyHEMA IOL impregnated 7 days
Protocol: as §1, with “The experiment of Example 7 was repeated leaving” for “In all”, “IOLs in” for “preceding examples”, “saturated solution for 7 days instead” for “diclofenac was used at concentrations”, “3. The quantities released were checked after 6 hours and 24 hours.” for “1.8 mg/ml or 1.5 mg/ml that is at or only slightly below the saturation level.”

in vivo = conditions: rabbit
Protocol: (§2) Samples of aqueous humor (approximately 150 μl) and plasma (approximately 2 ml) were taken at random intervals.

[9] = test system: inflammatory reactions of the eye; type: in vivo
Protocol: as §2

[10] = test system: inflammatory reactions of the eye; assay: Clinical examination of rabbit eyes implanted with indomethacin PMMA lenses (Example 3); type: in vivo; conditions: PMMA IOL impregnated with indomethacin implanted in rabbit eye, opposite eye as control

average amount of diclofenac released per implant ([1]; as Example 10, average of three implants): 89.79 µg
amounts of diclofenac released per implant ([1]; hydrophilic acrylic IOL autoclaved at 122° C. for 30 minutes in 1.5 mg/ml diclofenac in 0.9% NaCl, then 10 days in the solution at ambient temperature, individual implants): 83.57 µg and 101.66 µg and 84.16 µg
concentration of solution saturated with diclofenac [2]: 1800 µg/mL
quantity of diclofenac fixed per IOL ([3]; 0.225 mg/ml diclofenac in 0.9% NaCl): 70 µg
quantity of diclofenac fixed per IOL ([3]; 0.45 mg/ml diclofenac in 0.9% NaCl): 148 µg
quantity of diclofenac fixed per IOL ([3]; 0.90 mg/ml diclofenac in 0.9% NaCl): 276 µg
average quantity of diclofenac fixed per implant ([3]; 0.9 mg/ml diclofenac in 0.9% NaCl, 49 days in the impregnation solution): 502 µg
Average amount of diclofenac released (absorbed) per IOL ([4]; Day 0): 33.58 µg
Average amount of diclofenac released (absorbed) per IOL ([4]; Day 35): 92.96 µg
Average amount of diclofenac released (absorbed) per IOL ([4]; Day 41): 102.39 µg
Average amount of diclofenac released (absorbed) per IOL ([4]; Day 50): 104.33 µg
Average amount of diclofenac released (absorbed) per IOL ([4]; Day 65): 102.37 µg
amount of diclofenac released (absorbed) per IOL ([4]; sterilized at 120° C. for 30 minutes in 1.5 mg/ml diclofenac in deionized water, Day 0): 36.01 µg and 31.13 µg and 33.59 µg
amount of diclofenac released (absorbed) per IOL ([4]; sterilized, then left in impregnation solution at room temperature, Day 10): 83.57 µg and 101.66 µg and 84.16 µg
amount of diclofenac released (absorbed) per IOL ([4]; sterilized, then left in impregnation solution, Day 20): 92.68 µg and 95.60 µg and 109.99 µg
amount of diclofenac released (absorbed) per IOL ([4]; sterilized, then left in impregnation solution, Day 35): 86.65 µg and 100.06 µg and 92.18 µg
amount of diclofenac released (absorbed) per IOL ([4]; sterilized, then left in impregnation solution, Day 41): 106.94 µg and 108.33 µg and 91.90 µg
amount of diclofenac released (absorbed) per IOL ([4]; sterilized, then left in impregnation solution, Day 50): 85.29 µg and 114.80 µg and 112.90 µg
amount of diclofenac released (absorbed) per IOL ([4]; sterilized, then left in impregnation solution, Day 65): 107.06 µg and 98.64 µg and 101.41 µg
Released quantities ([5]; polyHEMA IOL impregnated 72 hours at room temperature in saturated diclofenac, release into 1 ml 0.9% NaCl, 6 hours): 127 µg/mL
Cumulative or total released quantities ([5]; polyHEMA IOL impregnated 72 hours, 6 hours): 127 µg/mL
Cumulative or total released quantities ([5]; polyHEMA IOL impregnated 72 hours, 24 hours): 222 µg/mL
Cumulative or total released quantities ([5]; polyHEMA IOL impregnated 72 hours, 96 hours): 333 µg/mL
Released quantities ([5]; polyHEMA IOL impregnated 72 hours, release into new 1 ml 0.9% NaCl, 24 hours): 95 µg/mL
Released quantities ([5]; polyHEMA IOL impregnated 72 hours, release into new 1 ml 0.9% NaCl, 96 hours): 111 µg/mL
quantities released (Q) ([6]; IOL saturated with diclofenac, medium renewed each interval, 6 H): 95 µg/mL
quantities released (Q) ([6]; medium renewed, 2 D): 40 µg/mL
quantities released (Q) ([6]; medium renewed, 3 D): 30 µg/mL
quantities released (Q) ([6]; medium renewed, 4 D): 20 µg/mL
quantities released (Q) ([6]; medium renewed, 5 D): 18 µg/mL
quantities released (Q) ([6]; medium renewed, 6 D): 12 µg/mL
quantities released (Q) ([6]; medium renewed, 7 D): 10 µg/mL
quantities released (Q) ([6]; medium renewed, 8 D): 10 µg/mL
quantities released (Q) ([6]; medium renewed, 9 D): 11 µg/mL
quantities released (Q) ([6]; medium renewed, 10 D): 12 µg/mL
quantities released (Q) ([6]; medium renewed, 11 D): 14 µg/mL
quantities released (Q) ([6]; medium renewed, 12 D): 16 µg/mL
quantities released (Q) ([6]; medium renewed, 13 D): 18 µg/mL
quantities released (Q) ([6]; medium renewed, 14 D): 20 µg/mL
quantities released (Q) ([6]; medium renewed, 24 H): 80 µg/mL
Released quantities ([8]; 6 hours): 122 µg/mL
Released quantities ([8]; 24 hours): 109 µg/mL
Cumulative or total released quantities ([8]; 6 hours): 122 µg/mL
Cumulative or total released quantities ([8]; 24 hours): 231 µg/mL
Compound: O=C(O)Cc1ccccc1Nc1c(Cl)cccc1Cl [diclofenac]
anti-inflammatory effect, summary [7]: real anti-inflammatory effect

Compound: COc1ccc2c(c1)c(CC(=O)O)c(C)n2C(=O)c1ccc(Cl)cc1 [indomethacin]
concentration at 7 day (in vivo): ~0.11 µg/mL
clinical observations: inflammatory reactions ([9]; polyHEMA lens impregnated with indomethacin, rabbit eye): inflammatory reactions disappeared at least as quickly as in Example 3
clinical observations: tolerance of the lenses ([9]; rabbit, in vivo): well tolerated
clinical examination: inflammatory reactions [10]: inflammatory reactions had disappeared by the tenth day from implantation
